Measurements taken from patent US4481197A, “Anti-inflammatory deoxyribosides” (Burroughs Wellcome Co., priority 1982, dated 1984).

Tests used:
inflammation = assay: Anti-inflammatory effectiveness by route; assay type: in vivo; conditions: orally, systemically and locally
[1] = test system: carrageenan pleurisy (3 hour exudate volume); assay: Carrageenan Pleurisy Assay (CPA), acute anti-inflammatory activity; assay type: in vivo; conditions: statement in words
Experimental: Following the procedure described by Vinegar et al in Proc. Soc. Exp. Biol. Med.,143, 711, (1973), and recently modified (Vinegar et al., Eur. J. Rheum. Inflam. 1, 204 (1978)) the acute anti-inflammatory activity of 4-amino-1-(2-deoxy-β-D-ribofuranosyl)-1H-imidazo-[4,5-c]-pyridine was compared with that of known anti-inflammatory drugs. The average 3 hour exudate volume for each drug-treated group was determined and the % inhibition relative to solvent-fed control animals calculated, the ED50 (mg/kg of body weight) being the dose required to reduce the 3 hour exudate volume by 50%. There were 5 animals in each drug-treated group and the control group.

[2] = test system: mouse neutrophil chemotaxis; assay: Mouse neutrophil chemotaxis; assay type: cell-based
[3] = Side effects / liver damage in animal models; conditions: in vivo
Analgesic activity = conditions: in vivo
[4] = test system: microbial purine nucleoside phosphorylase; conditions: Doskocil and Holy 1977; cited from earlier work

SMILES: Nc1nccc2c1ncn2[C@H]1C[C@H](O)[C@@H](CO)O1 [4-amino-1-(2-deoxy-β-D-ribofuranosyl)-1H-imidazo-[4,5-c]-pyridine]
- effectiveness as anti-inflammatory agent (inflammation): effective
- inhibition of carrageenan-induced pleurisy [1]: potent inhibitor
- inhibition of mouse neutrophil chemotaxis [2]: potent inhibitor
- side effects associated with prostaglandin inhibitors (gastric damage, inhibition of platelet aggregation) [3]: free of the side effects
- side effects of the anti-inflammatory steroids [3]: free of the side effects
- analgesic activity per se (Analgesic activity): no analgesic activity per se

SMILES: Nc1ncnc2c1ccn2[C@@H]1O[C@H](CO)[C@@H](O)[C@H]1O [7-deazaadenosine]
- substrate for microbial purine nucleoside phosphorylase [4]: not to be substrates

SMILES: OC[C@H]1O[C@@H](n2ccc3c(O)ncnc32)[C@H](O)[C@@H]1O [7-deazainosine]
- substrate for microbial purine nucleoside phosphorylase [4]: not to be substrates

SMILES: Nc1nc2c(nnn2[C@@H]2O[C@H](CO)[C@@H](O)[C@H]2O)c(=O)[nH]1 [S-azaguanosine]
- substrate for microbial purine nucleoside phosphorylase [4]: not to be substrates
